Assay [1] has as its system Alternaria solani. Description: Alternaria test (tomatoes)/preventive. It counts as in vivo, Alternaria solani on tomatoes. The settings on record: preventive spray, evaluated 3 days after inoculation. The procedure:
Alternaria Test (Tomatoes)/Preventive [table] To produce a suitable preparation of active compound, 1 part by weight of active compound is mixed with the stated amounts of solvent and emulsifier, and the concentrate is diluted with water to the desired concentration. To test for preventive activity, young plants are sprayed with the preparation of active compound at the stated rate of application. After the spray coating has dried on, the plants are inoculated with an aqueous spore suspension of Alternaria solani. The plants are then placed in an incubation cabinet at approximately 20° C. and a relative atmospheric humidity of 100%. The test is evaluated 3 days after the inoculation. 0% means an efficacy which corresponds to that of the untreated control while an efficacy of 100% means that no disease is observed.

The subject of assay [2] is Venturia inaequalis. The assay can be described thus: Venturia test (apples)/preventive. The class given is in vivo, Venturia inaequalis on apples. The settings on record: preventive spray, evaluated 10 days after inoculation. How it is done: Venturia Test (Apples)/Preventive [table] To produce a suitable preparation of active compound, 1 part by weight of active compound is mixed with the stated amounts of solvent and emulsifier, and the concentrate is diluted with water to the desired concentration. To test for preventive activity, young plants are sprayed with the preparation of active compound at the stated rate of application. After the spray coating has dried on, the plants are inoculated with an aqueous conidia suspension of the causal agent of apple scab (Venturia inaequalis) and then remain for 1 day in an incubation cabinet at approximately 20° C. and a relative atmospheric humidity of 100%. The plants are then placed in a greenhouse at approximately 21° C. and a relative atmospheric humidity of approximately 90%. The test is evaluated 10 days after the inoculation. 0% means an efficacy which corresponds to that of the untreated control, while an efficacy of 100% means that no disease is observed.

Consider two compounds from patent US9198423B2, “Active compound combinations” (BAYER INTELLECTUAL PROPERTY GMBH, priority 2011, dated 2015).

SMILES strings stand for the structures.

With `OC(Cc1ccccc1Cl)(Cn1nc[nH]c1=S)C1(Cl)CC1` (stereo not shown) [(A) Prothioconazole, Prothioconazole], the “Efficacy in % found” value in assay [1] (application rate 10 ppm a.i.) is 50%; in assay [2] (application rate 10 ppm a.i.), 43%.
On to `CC(C)NC(=O)N1CC(=O)N(c2cc(Cl)cc(Cl)c2)C1=O` [(B) Iprodione, Iprodione], for which the “Efficacy in % found” value in assay [1] (application rate 40 ppm a.i.) came out at 70%; in assay [2] (application rate 40 ppm a.i.), 3%.
